# In patent US10076505B2, “Inhalation formulations of Treprostinil” (priority 2003, dated 2018):
# “And” between values parts separate entries of the source, which are not always exact repeats. Equal entries are not always repeated.
# What was measured:
# sheep = test: Aerosolized UT-15 at high doses on baseline hemodynamics (Example III); type: in vivo
# From the text: The efficacy of benzindene prostaglandins, such as UT-15, for treating pulmonary hypertension can be assessed by determining the hemodynamics associated with pulmonary hypertension. In particular, measurements of pulmonary arterial pressure (PPA), left atrial pressure (PLA), central venous pressure (PCV), systemic arterial pressure (PSYS), heart rate (HR), and cardiac output (CO) are useful in determining the effects of benzindene prostaglandins delivered by inhalation or parenterally.
# Although pulmonary arterial pressure can be directly measured and is often used to quantify pulmonary arterial hypertension, PPA can be affected by 3 other variables: CO, PLA and PVR, as indicated by Equation 1: PPA=(CO*PVR)+PLA (1)
# On the other hand, PVR can not be directly measured and must be calculated by the following Equation 2: PVR=(PPA−PLA)/CO (2)
# Heart rate was determined by measuring the time (seconds) required for 25 heart beats to occur (t25) as indicated by the pulsations on the blood flow meter; the beats per minute (BPM) were calculated by the following equation: BPM=(25 beats/t25)*60 seconds
# All pressure may be monitored by commercially available transducers, such as Model 1290A HEWLETT PACKARD™ transducer (Andover, Mass.), which is attached to VALIDYNE CD19A Carrier Dmod. Amplifiers (Northridge, Calif.). Cardiac output may be measured by a Transonic Systems T101 Ultrasonic Bloodflow Meter (Ithaca, N.Y.). The pressure and blood flow signals may be recorded on ASTROMED MT-9500 Stripchart Recorder (West Warwick, R.I.) and digitally recorded with a personal computer using Easy Data Acquisition Software (Nashville, Tenn.).
# Six yearling sheep (3 males, 3 females; 21-37 kg) were fasted 18-24 hours and initially anesthetized with a short acting barbiturate (thiopental) to allow intubation of the sheep. Halothane gas anesthesia (1.5-2.5%) was then used for the surgical procedures. Via a left thoracotomy, a Transonic blood flow probe was placed around the main pulmonary artery, silastic catheters placed in the main pulmonary artery and left atrium. After approximately 7 days the sheep were reanesthetized and the left carotid artery cannulated, a Cordis Introducer Sheath inserted in the left jugular vein, and a tracheotomy made. The sheep were allowed to recover for another 3-5 days prior to experimentation. These sheep were used to allow measurement of pulmonary arterial pressure (PPA), left atrial pressure (PLA), central venous pressure (PCV), systemic arterial pressure (PSYS), heart rate (HR), and cardiac output (CO) after baseline measurements were made for a minimum of 30 minutes.
# Baseline measurements consisted of 30 minutes of monitoring during vehicle/saline aerosolization (0.28 ml/min). […]
# critical limb ischemia = test: Open-label study of subcutaneous treprostinil in critical limb ischemia (Example X); type: in vivo, human
# From the text: The planned enrollment was ten patients. All patients were to have Fontaine Stage III-IV or Rutherford Class 4-6 disease and ankle brachial indexes (ABI) from 0-0.55 in the most affected limb or the limb containing the reference ischemic wound for wound healing assessments. […] Any condition or abnormal laboratory value which, based on information in the treprostinil package insert, would constitute an unacceptable risk to the patient's safety, also was an exclusion criterion. Patients could not have been in an investigational trial within the past 30 days or been a non-responder to chronic prostanoid treatment in the past 30 days.
# After the completion of baseline assessments, treprostinil therapy was initiated in the clinic. […] Patients and/or a caregiver were trained to administer treprostinil on an outpatient basis using an ambulatory subcutaneous infusion pump (Minimed, Sylmar, Calif., Model 407C). Each patient was to be initiated at a dose of 2.5 ng/kg/min or lower, with the dose titrated based on tolerability. Dose increases were to be 1.25-2.5 ng/kg/min per week. The maximum allowed dose was 15 ng/kg/min and the minimum allowed dose was 0.625 ng/kg/min. The patients were instructed to change the subcutaneous infusion site every three days.
# Patients returned to the clinic for assessments at Weeks 2, 6, and 12. Treprostinil treatment was terminated by gradually decreasing the infusion rate (over a period of 1-4 hours, as clinically indicated) after the Week 12 visit assessments were completed.
# Safety was assessed in all patients using adverse event (AEs) and physical examination findings. Signs and symptoms of CLI or worsening CLI were not considered to be AEs unless found to be different in causality, intensity, or frequency.
# Rest pain was assessed in all patients using a visual analog scale (VAS) for rest pain. The patients were asked to rate their leg pain on a scale of 0-10 with 0 reflecting no pain and 10 reflecting the worst pain. The scale was printed and the patients were asked to place a mark on the number that reflected their pain experience. Patients were asked to rate the worst pain they had experienced since the previous assessment and their average pain during that time frame. Analgesic medication use was assessed by the investigator as unchanged, increased, decreased, or discontinued.
# Wound assessments were to be conducted in patients who had at least one ischemic wound at baseline. If the patient had multiple ischemic wounds, then one or two (usually the largest or most severe wounds) were be selected as reference wounds. The selected wound(s) was photographed for documentation. When possible, the outside edge of the wound(s) was traced for area measurement. The tracings were used to calculate wound area by measuring the length and width of the wound. Not all wounds were of the nature that tracings were possible for example, wounds between toes or on the heel with extensive tissue loss were not traced. These wounds were described and photographed.
# In patients who had wounds other than those chosen as reference wounds, the overall status (i.e., worse, the same, improved, or healed) of each additional wound also was documented at each study visit. Any new wounds that occurred during the study also were carefully documented.
# [1] = test system: large blood vessels of the lower limbs; conditions: patients with severe intermittent claudication; cited from earlier work
# [2] = 3800-5700 ng per kg per min, 90 minutes
# [3] = individual patients 1-10 (one table line each), versus baseline pain medication, listed as treprostinil
smiles,measurement,setting,value
"CCCCC[C@H](O)CC[C@@H]1[C@H]2Cc3cccc(OCC(=O)O)c3C[C@H]2C[C@H]1O [UT-15, 9-deoxy-2′,9-alpha-methano-3-oxa-4,5,6-trinor-3,7-(1′,3′-interphenylene)-13,14-dihydro-prostaglandin F1]",PPA decrease relative to baseline,sheep; [2],approximately 18%
same,PSYS decrease relative to baseline,sheep; [2],7.5%
same,PVR decrease relative to baseline,sheep; [2],approximately 19%
same,"non-lung effects (heart rate, cardiac output)",sheep; high doses,without significant non-lung effects
same,wounds during the twelve weeks of drug treatment,critical limb ischemia; Patient 3,remained stable
same,average rest pain score,"critical limb ischemia; Patient 3, 7 at baseline",4
same,worst rest pain score,"critical limb ischemia; Patient 3, reduced from 8",4
same,reduction in average rest pain,critical limb ischemia; baseline to week 12,58%
same,reduction in the worst rest pain,critical limb ischemia; baseline to week 12,64%
same,relation of SAEs to treprostinil,"critical limb ischemia; cholecystectomy, worsening congestive heart failure",unlikely to be related
same,pain relief,critical limb ischemia; conclusion of study,pain relief in all patients
same,Pain Medication Consumption Week 2,critical limb ischemia; [3],No change (5×) and Less (4×) and PERCOCET ®
same,Pain Medication Consumption Week 6,critical limb ischemia; [3],Less (5×) and Increased and No change (2×) and None and Discontinued
same,Pain Medication Consumption Week 12,critical limb ischemia; [3],Darvocet and PERCOCET ® and None (2×) and No change (4×)
same,patients who discontinued drug prematurely,critical limb ischemia; of ten patients,Two
same,patients with complete healing of their wounds,critical limb ischemia; of ten patients,Three
same,patients with diarrhea,critical limb ischemia; of ten patients,one
same,patients with mild headache,critical limb ischemia; of ten patients,one
same,patients with mild jaw pain,critical limb ischemia; of ten patients,Two
same,week of complete wound closure,"critical limb ischemia; patient 5, 15 ng/kg/min",6 week
same,week of complete resolution of rest pain,"critical limb ischemia; patient 7, 7.5 ng/kg/min",6 week
same,week of complete wound closure,"critical limb ischemia; patient 7, 7.5 ng/kg/min",12 week
same,week of complete resolution of ischemic rest pain,"critical limb ischemia; patient 10, 15 ng/kg/min",2 week
same,week of complete wound closure,"critical limb ischemia; patient 10, 15 ng/kg/min",12 week
same,new wounds during the trial,critical limb ischemia; ten patients,No patient developed a new wound
same,serious adverse events (SAEs),critical limb ischemia; ten patients,two
same,most common side effect,"critical limb ischemia; ten patients, sc infusion up to 15 ng/kg/min",infusion site pain
same,"patients switched to a non-sedating, non-narcotic pain medication",critical limb ischemia; week 12,one
same,patients with complete pain relief who discontinued all pain medications,critical limb ischemia; week 12,two
same,patients with increased consumption of pain medication,critical limb ischemia; week 12,one
same,patients with medication usage unchanged from baseline,critical limb ischemia; week 12,4 patients
same,patients with reduced pain medication consumption,critical limb ischemia; week 12,three
same,"average rest pain, mean VAS (0-10)","critical limb ischemia; week 12, baseline mean 7.1",2.4
same,"worst rest pain, mean VAS (0-10)","critical limb ischemia; week 12, baseline mean 8.4",2.5
same,blood flow in large blood vessels of the lower limbs,[1],increase in blood flow
